From patent US9474790B2, “Stable, protracted GLP-1/glucagon receptor co-agonists for medical use” (Novo Nordisk A/S, priority 2013, dated 2016)
pIC50: −log10 of the molar value. Numbered stars: 1 amine (or outer) side, 2 acyl side, 3 side chain; on linkers, the order of the positions; unused ones are H or OH. Bridge positions count the residues as written; N and C are the ends. Square brackets hold non-standard residues; d marks the D form. Side chains are listed from the residue outwards. Peptide text beside a SMILES is read from it. I, II: the chains in the order shown. * marks the point of attachment. C18 diacid = O=C(O)CCCCCCCCCCCCCCCCC(=O)*; γGlu = O=C(O)[C@H](CCC(=O)[*:2])N[*:1]; Ac4c = NC1(C(=O)O)CCC1; AEEA = NCCOCCOCC(=O)O; Aib = CC(C)(N)C(=O)O

Experiments:
[1] = Chemical stability assessment by RP-UPLC; assay type: physicochemical; details: 333 μM, 8 mM phosphate buffer pH 7.3, 37° C. vs 5° C.
Method: The purpose of this assay was to assess the chemical stability of the glucagon derivatives of the invention in aqueous solutions.
Chemical stability of glucagon derivatives or analogues was investigated by RP-UPLC separation and UV detection. Lyophilized samples were dissolved in a 8 mM Phosphate buffer pH 8.6, followed by adjustment to pH 7.3.using HCl to a final concentration of 333 μM. Samples were incubated for 14 days at 5° C. and 37° C. followed by RP-UPLC analysis. Purity was defined as the area percentage of the main peak in relation to the total area of all integrated peaks in each chromatogram. Purity loss after 14 days at 37° C. was determined as the difference in purity between the samples incubated at 5° C. and 37° C., divided by the purity of the sample after incubation for 14 days at 5° C.
RP-UPLC analysis was performed using a Waters BEH130 2.1 mm×150 mm, 1.7 μm column operated at 50° C. and a flow rate of 0.4 mL/min using a mobile phase system consisting of A: 0.05% TFA in MQ-water B: 0.05% TFA in Acetonitrile. UV-detection was performed at 215 nm. The typical gradient profile used for most of the samples is shown below.
For some individual derivatives or analogues eluting at substantially different retention times compared with the majority of derivatives or analogues, some adjustments to the gradient profile were made to better enable purity assessment comparison across samples. The data confirmed the improved chemical stability of the glucagon derivatives of this invention.

[2] = biological target: T1, human GLP-1 receptor (Homo sapiens, UniProt P43220); assay: GLP-1 receptor binding, 125I-GLP-1 displacement SPA on isolated membranes; details: displacement of 125I-GLP-1 from membranes; read-out: IC50 GLP-1R
T1 construct: expressed in transfected cells; host or cells: BHK cells (parent BHKTS13), clone FCW467-12A/KZ10-1, with CRE luciferase
T1 sequence (P43220 24-463): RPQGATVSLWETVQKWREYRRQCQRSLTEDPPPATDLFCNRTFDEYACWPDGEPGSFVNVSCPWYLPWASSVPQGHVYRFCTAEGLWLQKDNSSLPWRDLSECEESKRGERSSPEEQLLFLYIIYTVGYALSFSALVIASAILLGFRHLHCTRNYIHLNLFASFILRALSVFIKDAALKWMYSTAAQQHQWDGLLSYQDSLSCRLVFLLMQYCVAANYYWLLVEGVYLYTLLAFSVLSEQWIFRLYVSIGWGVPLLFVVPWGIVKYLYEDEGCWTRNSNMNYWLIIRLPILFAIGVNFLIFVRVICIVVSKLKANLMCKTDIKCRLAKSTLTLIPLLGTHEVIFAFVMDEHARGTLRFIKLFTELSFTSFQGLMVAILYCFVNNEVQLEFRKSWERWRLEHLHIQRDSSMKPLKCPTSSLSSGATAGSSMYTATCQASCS
How it was run: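 SPA displacement of 125I-GLP-1(7-36)NH2 from membranes of BHK cells expressing human GLP-1 receptor, with WGA beads, in 50 mM HEPES, 5 mM EGTA, 5 mM MgCl2, 0.005% Tween 20, pH 7.4. Incubated 2 h at 30°C; IC50 by non-linear regression, run at ≤0.001% or 2.0% final serum albumin.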

Purity loss; 14 days at 37° C. [1] [%]	pIC50 [2]	SMILES
9	8.96	CC(C)C[C@H](NC(=O)[C@H](CC(C)C)NC(=O)[C@H](Cc1c[nH]c2ccccc12)NC(=O)[C@H](CCC(N)=O)NC(=O)[C@@H](NC(=O)[C@H](Cc1ccccc1)NC(=O)[C@H](CCC(=O)O)NC(=O)[C@H](CCC(N)=O)NC(=O)[C@H](C)NC(=O)[C@H](C)NC(=O)[C@H](CCCCN)NC(=O)[C@H](CO)NC(=O)[C@H](CC(=O)O)NC(=O)[C@H](CC(C)C)NC(=O)[C@H](Cc1ccc(O)cc1)NC(=O)[C@H](CCCCN)NC(=O)[C@H](CO)NC(=O)[C@H](CC(C)C)NC(=O)[C@H](CC(=O)O)NC(=O)[C@H](CO)NC(=O)[C@@H](NC(=O)[C@H](Cc1ccccc1)NC(=O)[C@@H](NC(=O)CNC(=O)[C@H](CCC(N)=O)NC(=O)C(C)(C)NC(=O)[C@@H](N)Cc1c[nH]cn1)[C@@H](C)O)[C@@H](C)O)C(C)C)C(=O)N[C@@H](CC(N)=O)C(=O)N[C@@H](CCCCNC(=O)CC[C@H](NC(=O)CC[C@H](NC(=O)COCCOCCNC(=O)COCCOCCNC(=O)CC[C@H](NC(=O)CCCCCCCCCCCCCCCCC(=O)O)C(=O)O)C(=O)O)C(=O)O)C(N)=O [Example 8, N^ε29-[(4S)-4-carboxy-4-[[(4S)-4-carboxy-4-[[2-[2-[2-[[2-[2-[2-[[(4S)-4-carboxy-4-(17-carboxyheptadecanoylamino)butanoyl]amino]ethoxy]ethoxy]acetyl]amino]ethoxy]ethoxy]acetyl]amino]butanoyl]amino]butanoyl]-[Aib2,Leu10,Lys17,Ala18,Glu21,Leu27,Lys29]-Glucagon amide] (H-H[Aib]QGTFTSDLSKYLDSKAAQEFVQWLLNK([γGlu-γGlu-AEEA-AEEA-γGlu-C18 diacid])-NH2; N-terminus assumed)
8	9.30	CC(C)C[C@H](NC(=O)[C@H](CC(C)C)NC(=O)[C@H](Cc1c[nH]c2ccccc12)NC(=O)[C@H](CCC(N)=O)NC(=O)[C@@H](NC(=O)[C@H](Cc1ccccc1)NC(=O)[C@H](CCC(=O)O)NC(=O)[C@H](CCCNC(=N)N)NC(=O)[C@H](C)NC(=O)[C@H](CCCNC(=N)N)NC(=O)[C@H](CCCNC(=N)N)NC(=O)[C@H](CO)NC(=O)[C@H](CC(=O)O)NC(=O)[C@H](CC(C)C)NC(=O)[C@H](Cc1ccc(O)cc1)NC(=O)[C@H](CCCCN)NC(=O)[C@H](CO)NC(=O)[C@H](CC(C)C)NC(=O)[C@H](CC(=O)O)NC(=O)[C@H](CO)NC(=O)[C@@H](NC(=O)[C@H](Cc1ccccc1)NC(=O)[C@@H](NC(=O)CNC(=O)[C@H](CCC(N)=O)NC(=O)C(C)(C)NC(=O)[C@@H](N)Cc1c[nH]cn1)[C@@H](C)O)[C@@H](C)O)C(C)C)C(=O)N[C@@H](CC(N)=O)C(=O)N[C@@H](CCCCNC(=O)CC[C@H](NC(=O)CC[C@H](NC(=O)COCCOCCNC(=O)COCCOCCNC(=O)CC[C@H](NC(=O)CCCCCCCCCCCCCCCCC(=O)O)C(=O)O)C(=O)O)C(=O)O)C(N)=O [Example 12, N^ε29-[(4S)-4-carboxy-4-[[(4S)-4-carboxy-4-[[2-[2-[2-[[2-[2-[2-[[(4S)-4-carboxy-4-(17-carboxyheptadecanoylamino)butanoyl]amino]ethoxy]ethoxy]acetyl]amino]ethoxy]ethoxy]acetyl]amino]butanoyl]amino]butanoyl]-[Aib2,Leu10,Arg20,Glu21,Leu27,Lys29]-Glucagon amide] (H-H[Aib]QGTFTSDLSKYLDSRRAREFVQWLLNK([γGlu-γGlu-AEEA-AEEA-γGlu-C18 diacid])-NH2)
3	9.70	CC(C)C[C@H](NC(=O)[C@H](Cc1ccc(O)cc1)NC(=O)[C@H](CCCCN)NC(=O)[C@H](CO)NC(=O)[C@H](CC(C)C)NC(=O)[C@H](CC(=O)O)NC(=O)[C@H](CO)NC(=O)[C@@H](NC(=O)[C@H](Cc1ccccc1)NC(=O)[C@@H](NC(=O)CNC(=O)[C@H](CCC(N)=O)NC(=O)C1(NC(=O)[C@@H](N)Cc2c[nH]cn2)CCC1)[C@@H](C)O)[C@@H](C)O)C(=O)N[C@@H](CCC(=O)O)C(=O)N[C@@H](CCC(=O)O)C(=O)N[C@@H](CCCNC(=N)N)C(=O)N[C@@H](CCCNC(=N)N)C(=O)N[C@@H](C)C(=O)N[C@@H](CCCNC(=N)N)C(=O)N[C@@H](CC(=O)O)C(=O)N[C@@H](Cc1ccccc1)C(=O)N[C@H](C(=O)N[C@@H](CCC(N)=O)C(=O)N[C@@H](Cc1c[nH]c2ccccc12)C(=O)N[C@@H](CC(C)C)C(=O)N[C@@H](CC(C)C)C(=O)N[C@@H](CCCCNC(=O)CNC(=O)[C@H](CO)NC(=O)[C@H](CCC(=O)O)NC(=O)CNC(=O)[C@H](CO)NC(=O)CC[C@H](NC(=O)CC[C@H](NC(=O)CCCCCCCCCCCCCCCCC(=O)O)C(=O)O)C(=O)O)C(=O)N[C@H](C(N)=O)[C@@H](C)O)C(C)C [Example 16, N^ε28-[2-[[(2S)-2-[[(2S)-4-carboxy-2-[[2-[[(2S)-2-[[(4S)-4-carboxy-4-[[(4S)-4-carboxy-4-(17-carboxyheptadecanoylamino)butanoyl]amino]butanoyl]amino]-3-hydroxypropanoyl]amino]acetyl]amino]butanoyl]amino]-3-hydroxypropanoyl]amino]acetyl]-[Acb2,Leu10,Glu15,Glu16,Arg20,Leu27,Lys28]-Glucagon amide] (I: H-H[Ac4c]QGTFTSDLSKYLEERRARDFVQWLLKT-NH2 / II: {C18 diacid-γGlu-γGlu}-SGESG; amide I:28-II:C; N-terminus assumed)
1	–	CC(C)C[C@H](NC(=O)[C@H](Cc1ccc(O)cc1)NC(=O)[C@H](CCCCN)NC(=O)[C@H](CO)NC(=O)[C@H](CC(C)C)NC(=O)[C@H](CC(=O)O)NC(=O)[C@H](CO)NC(=O)[C@@H](NC(=O)[C@H](Cc1ccccc1)NC(=O)[C@@H](NC(=O)CNC(=O)[C@H](CCC(N)=O)NC(=O)C1(NC(=O)[C@@H](N)Cc2c[nH]cn2)CCC1)[C@@H](C)O)[C@@H](C)O)C(=O)N[C@@H](CCC(=O)O)C(=O)N[C@@H](CO)C(=O)N[C@@H](CCCNC(=N)N)C(=O)N[C@@H](CCCNC(=N)N)C(=O)N[C@@H](C)C(=O)N[C@@H](CCC(N)=O)C(=O)N[C@@H](CC(=O)O)C(=O)N[C@@H](Cc1ccccc1)C(=O)N[C@H](C(=O)N[C@@H](CCC(N)=O)C(=O)N[C@@H](Cc1c[nH]c2ccccc12)C(=O)N[C@@H](CC(C)C)C(=O)N[C@@H](CC(C)C)C(=O)N[C@@H](CCCCNC(=O)COCCOCCNC(=O)COCCOCCNC(=O)CC[C@H](NC(=O)CC[C@H](NC(=O)CC[C@H](NC(=O)CCCCCCCCCCCCCCCCC(=O)O)C(=O)O)C(=O)O)C(=O)O)C(=O)N[C@H](C(N)=O)[C@@H](C)O)C(C)C [Example 63, N^ε28-[2-[2-[2-[[2-[2-[2-[[(4S)-4-carboxy-4-[[(4S)-4-carboxy-4-[[(4S)-4-carboxy-4-(17-carboxyheptadecanoylamino)butanoyl]amino]butanoyl]amino]butanoyl]amino]ethoxy]ethoxy]acetyl]amino]ethoxy]ethoxy]acetyl]-[Acb2,Leu10,Glu15,Leu27,Lys28]-Glucagon amide] (H-H[Ac4c]QGTFTSDLSKYLESRRAQDFVQWLLK([AEEA-AEEA-γGlu-γGlu-γGlu-C18 diacid])T-NH2; N-terminus assumed)
